Experimental data taken from patent US20260000781A1, “FC CONJUGATES INCLUDING AN INHIBITOR OF CD73 AND USES THEREOF” (Cidara Therapeutics, Inc., priority 2022, published 2026).

Assays:
[1] = tested on: colon tumor cell line CT26; assay: Syngeneic mouse tumor efficacy model with colon tumor cell line CT26; type: in vivo; details: CT26, Day 10, 210 mg/kg/wk (30 mg/kg IP daily)
Description: Tumor efficacy models were conducted in female BALB/c mice (Charles River; 18-22 g) injected with the colon tumor cell line CT26 (ATCC; CRL-2638). Briefly, CT26 cells freshly prepared and resuspended in PBS were injected SC into the shaved right flank of mice. Tumors were allowed to grow until they became measurable (˜50 mm^3) (typically after 7-10 days of growth). Mice were then randomized so each starting group had approximately the same tumor group average (typical+/−5 mm^3) and treatment initiated. Each group consisted of 10 animals. Conjugate 133a was dosed at 20 mg/kg via intraperitoneal (IP) injection on MWF, for 2 weeks. […] The study also included a vehicle (PBS) only treatment group with the aforementioned schedule. After initiation of treatment tumors were measured 3×/week with tumor volumes calculated based on the following formula: (width×width×length)/2. All tumors were monitored until the maximum allowed volume was reached (=>2,000 mm^3).
Tumor efficacy models were conducted in female BALB/c mice (Charles River; 18-22 g) injected with the colon tumor cell line CT26 (ATCC; CRL-2638). […] After initiation of treatment tumors were measured 3×/week with tumor volumes calculated based on the following formula: (width×width×length)/2. All tumors were monitored until the maximum allowed volume was reached (=>2,000 mm^3). […]

[2] = tested on: breast tumor cell line EMT-6; assay: Syngeneic mouse tumor efficacy model with breast tumor cell line EMT-6; type: in vivo; details: EMT-6, IP
Description: Tumor efficacy models were conducted in female BALB/c mice (Charles River laboratories; 18-22 g) injected with the breast tumor cell line EMT-6 (ATCC; CRL-2755). Briefly, EMT-6 cells propagated and prepared by standard methods were resuspended in PBS and injected subcutaneously (in a 100 μL volume) into the shaved right flank of mice. Five days after cell injection, and prior to measurable tumor formation, treatment was initiated via IP injection (10 mL/kg) of test articles or controls. […] The test article was Conjugate 172a dosed at 30 mg/kg twice weekly, for 3 weeks. The final group consisted of mice dosed with both the anti-PD-1 mAb and Conjugate 172a at 30 mg/kg using the respective dosing schedules for each.
Each group consisted of 15 animals and tumors were measured 3× weekly with calipers on Mon/Wed/Fri. Tumor volumes were calculated based on the following formula: [(width×width×length)/2]. All tumors were monitored until the maximum allowed volume was reached (=>2,000 mm^3).
Although occasionally an animal would be removed from study if the tumor grew internally causing undo stress to the animal, or the inability to measure the tumor accurately. Data was analyzed and graphed with Graphpad Prism 6.00. Where conducted, statistical evaluation used the Mann-Whitney variation of the t-test. […]

In the case of `C[C@H](Nc1cc(Cl)nc2c1cnn2[C@@H]1O[C@H](COP(=O)(O)CP(=O)(O)O)[C@@H](O)[C@H]1O)c1ccccc1F` [AB680], the “reduction in tumor volume compared to the vehicle group” value [1] is reported as 50.7%, the “% Complete regression (Day 36)” value ([2]; 15 animals per group, regimens as for % tumor reduction) is reported as 6.7% and the “% Tumor reduction (Day 22)” value ([2]; Conjugate 172a 30 mg/kg twice weekly for 3 weeks, AB680 30 mg/kg daily, anti-PD-1 mAb on Day 0, 2, 4, 7, 9, 12) is reported as 0%.
